Measurements: patent US20090221642A1, “MUSCARINIC RECEPTOR AGONISTS, COMPOSITIONS, METHODS OF TREATMENT THEREOF, AND PROCESSES FOR PREPARATION THEREOF-176” (AstraZeneca AB, priority 2008, published 2009)

These compounds were tested against T1, cloned human M4 receptor (human Muscarinic receptor subtype 4) (Homo sapiens, UniProt P08173) (assay: hM4 receptor GTPγS binding). Settings: CHO cell membranes expressing hM4; [35S]GTPγS binding; read-out: hM4 EC50.
T1 construct: purchased Perkin-Elmer RBHM4M; host or cells: Chinese hamster ovary cells (CHO) membranes
T1 sequence (P08173 1-479): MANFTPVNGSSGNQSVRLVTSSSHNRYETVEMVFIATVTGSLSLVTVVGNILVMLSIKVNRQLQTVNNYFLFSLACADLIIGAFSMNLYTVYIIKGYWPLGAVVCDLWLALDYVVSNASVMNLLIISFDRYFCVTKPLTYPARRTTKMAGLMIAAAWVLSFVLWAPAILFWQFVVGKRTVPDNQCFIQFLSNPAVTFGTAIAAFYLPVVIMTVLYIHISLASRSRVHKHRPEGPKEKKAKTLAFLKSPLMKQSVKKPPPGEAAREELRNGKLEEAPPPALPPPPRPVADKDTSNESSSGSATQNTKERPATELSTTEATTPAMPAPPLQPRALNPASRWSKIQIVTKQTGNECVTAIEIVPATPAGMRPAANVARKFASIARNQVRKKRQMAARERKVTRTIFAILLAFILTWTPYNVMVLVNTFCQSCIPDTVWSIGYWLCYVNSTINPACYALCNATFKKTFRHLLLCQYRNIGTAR
Format: biochemical
Description: hM4 Receptor GTPγS Binding
Membranes produced from Chinese hamster ovary cells (CHO) expressing the cloned human M4 receptor (human Muscarinic receptor subtype 4, gene bank access NM_000741), are obtained from Perkin-Elmer (RBHM4M). The membranes are thawed at 37° C., passed 3 times through a 23-gauge blunt-end needle, diluted in the GTPγS binding buffer (50 mM Hepes, 20 mM NaOH, 100 mM NaCl, 1 mM EDTA, 5 mM MgCl2, pH 7.4, 100 μM DTT). The EC50, IC50 and Emax of the compounds of the invention are evaluated from 10-point dose-response curves (three fold concentration range) done in 60 μl in 384-well non-specific binding surface plate (Corning). Ten microliters from the dose-response curves plate (5× concentration) are transferred to another 384 well plate containing 25 μl of the following: 10 μg of hM4 membranes, 500 μg of Flashblue beads (Perkin-Elmer) and GDP 40 μM. An additional 15 μl containing 3.3× (60,000 dpm) of GTPγ^35S (0.4 nM final) are added to the wells resulting in a total well volume of 50 μl. Basal and maximal stimulated [^35S]GTPγS binding are determined in absence and presence of 30 μM final of acetylcholine agonist. The membranes/beads mix are pre-incubated for 15 minutes at room temperature with 40 μM GDP prior to distribution in plates (20 μM final). The reversal of acetylcholine-induced stimulation (10 μM final) of [^35S]GTPγS binding is used to assay the antagonist properties (IC50) of the compounds. The plates are incubated for 60 minutes at room temperature then centrifuged at 400 rpm for 5 minutes. The radioactivity (cpm) is counted in a Trilux (Perkin-Elmer).
Values of EC50, IC50 and Emax are obtained using sigmoidal fits of a non-linear curve-fitting program (XLfit version 4.2.2 Excel add-in version 4.2.2 build 18 math 1Q version 2.1.2 build 18) of percent stimulated [^35S]GTPγS binding vs. log(molar ligand). All pEC50 and plC50 values are reported as arithmetic means ±standard error of mean of ‘n’ independent experiments.
For `COC(=O)N1CCC(C)(N2CCC(n3c(=O)[nH]c4ccc(C)cc43)CC2)C1` (single isomer, unassigned) [Example 45, methyl 3-methyl-3-(4-(6-methyl-2-oxo-2,3-dihydro-1H-benzo[d]imidazol-1-yl)piperidin-1-yl)pyrrolidine-1-carboxylate], the EC50 was 11.2 µM.
With `Cc1ccc2[nH]c(=O)n(C3CCN(C4(C)CCN(C(=O)OC(C)C)C4)CC3)c2c1` (single isomer, unassigned) [Example 40, isopropyl 3-methyl-3-(4-(6-methyl-2-oxo-2,3-dihydro-1H-benzo[d]imidazol-1-yl)piperidin-1-yl)pyrrolidine-1-carboxylate] the EC50 was > 22.3 µM.
For `Cc1ccc2c(c1)[nH]c(=O)n2C1CCN(C2(C)CCN(C(=O)OC(C)C)C2)CC1` (single isomer, unassigned) [Example 14, isopropyl 3-methyl-3-(4-(5-methyl-2-oxo-2,3-dihydro-1H-benzo[d]imidazol-1-yl)piperidin-1-yl)pyrrolidine-1-carboxylate], the EC50 was > 90 µM.
Compound `C#CCOC(=O)N1CCC(C)(N2CCC(n3c(=O)[nH]c4cc(F)ccc43)CC2)C1` (single isomer, unassigned) [Example 25, prop-2-ynyl 3-(4-(5-fluoro-2-oxo-2,3-dihydro-1H-benzo[d]imidazol-1-yl)piperidin-1-yl)-3-methylpyrrolidine-1-carboxylate] has an EC50 of 0.684 µM.
With `CCOC(=O)N1CCC(C)(N2CCC(n3c(=O)[nH]c4cc(F)c(C)cc43)CC2)C1` (single isomer, unassigned) [Example 55, ethyl 3-(4-(5-fluoro-6-methyl-2-oxo-2,3-dihydro-1H-benzo[d]imidazol-1-yl)piperidin-1-yl)-3-methylpyrrolidine-1-carboxylate] the EC50 was 1.71 µM.
For `CCOC(=O)N1CCC(C)(N2CCC(N3C(=O)Cc4cc(F)ccc43)CC2)C1` (single isomer, unassigned) [Example 80, ethyl 3-(4-(5-fluoro-2-oxoindolin-1-yl)piperidin-1-yl)-3-methylpyrrolidine-1-carboxylate], the EC50 was > 21.8 µM.
With `CC1(N2CCC(n3c(=O)[nH]c4ccccc43)CC2)CCN(C(=O)OCCF)C1` (single isomer, unassigned) [Example 31, 2-fluoroethyl 3-methyl-3-(4-(2-oxo-2,3-dihydro-1H-benzo[d]imidazol-1-yl)piperidin-1-yl)pyrrolidine-1-carboxylate] the EC50 was 1.19 µM.
In the case of `CCOC(=O)N1CCC(C)(N2CCC(n3c(=O)[nH]c4cc(F)ccc43)CC2)C1` (single isomer, unassigned) [Example 6, ethyl 3-(4-(5-fluoro-2-oxo-2,3-dihydro-1H-benzo[d]imidazol-1-yl)piperidin-1-yl)-3-methylpyrrolidine-1-carboxylate], the EC50 is reported as 1.73 µM.
`COC(=O)N1CCC(C)(N2CCC(n3c(=O)[nH]c4ccc(F)cc43)CC2)C1` (single isomer, unassigned) [Example 52, methyl 3-(4-(6-fluoro-2-oxo-2,3-dihydro-1H-benzo[d]imidazol-1-yl)piperidin-1-yl)-3-methylpyrrolidine-1-carboxylate] gave an EC50 of 5.09 µM.
`CC1(N2CCC(n3c(=O)[nH]c4cc(F)c(F)cc43)CC2)CCN(C(=O)OCCF)C1` (single isomer, unassigned) [Example 61, 2-fluoroethyl 3-(4-(5,6-difluoro-2-oxo-2,3-dihydro-1H-benzo[d]imidazol-1-yl)piperidin-1-yl)-3-methylpyrrolidine-1-carboxylate] showed an EC50 of 4.42 µM.
In the case of `COC(=O)N1CCC(C)(N2CCC(n3c(=O)[nH]c4cc(F)ccc43)CC2)C1` (stereo not drawn) [Example 8, methyl 3-(4-(5-fluoro-2-oxo-2,3-dihydro-1H-benzo[d]imidazol-1-yl)piperidin-1-yl)-3-methylpyrrolidine-1-carboxylate], the EC50 is reported as 5.21 µM.
With `CCOC(=O)N1CCC(C)(N2CCC(N3C(=O)Cc4cc(F)c(C)cc43)CC2)C1` (single isomer, unassigned) [Example 81, ethyl 3-(4-(5-fluoro-6-methyl-2-oxoindolin-1-yl)piperidin-1-yl)-3-methylpyrrolidine-1-carboxylate] the EC50 was 7.07 µM.
